According to patent US10246442B2, “4-Aminoquinazolin compounds as prolyl hydroxylase inhibitors” (JANSSEN PHARMACEUTICA NV, priority 2011, dated 2019):

How the values were obtained:
HIF1-α, Hela cells = assay: Cellular assay for HIF1-α in Hela cells; format: cell-based; conditions: Homo sapiens, 100 μM compound, 6 hours, percent of HIF stimulation relative to assay control compound 7-[(4-Chloro-phenyl)-(5-methyl-isoxazol-3-ylamino)-methyl]-quinolin-8-ol
Experimental: Cellular Assay for HIF1-α
Hela cells (ATCC, Manassas, Va.) were plated in 96-well plates at 20,000 cells per well in 100 μl of DMEM containing 10% fetal bovine serum, 1% non-essential amino acids, 50 IU/mL of penicillin and 50 μg/mL of streptomycin (all cell culture reagents from Invitrogen, Carlsbad, Calif.). 24 hours after plating, changed media to 100 ul of DMEM without 10% fetal bovine serum, 1.1 μl of the stock solution for each compound was added and incubated for 6 hours. All compounds were tested with a final compound concentration of 100 μM. The supernatant was removed and the cells were lysed in 55 μl of MSD lysis buffer containing protease inhibitors. 50 μl of the cell lysate was then transferred to a blocked MSD human HIF-1α detection plate (Meso-Scale Discovery, Gaithersburg, Md., as per manufacturers protocol), and incubated at room temperature on an orbital shaker for 2 hour. After 3 washes in PBS, 25 μl of 20 nM anti-HIF1α a detection antibody was added and incubated for 1 hour at room temperature on an orbital shaker. After 3 washes in PBS, 150 μl of 1× read buffer was added and the plate was then read on a MSD SECTOR instrument. Data was analyzed by determining the percent of HIF stimulation in the presence of 100 μM compound relative to an assay control compound, 7-[(4-Chloro-phenyl)-(5-methyl-isoxazol-3-ylamino)-methyl]-quinolin-8-ol.

PHD2181-417 = PHD2181-417 (Homo sapiens (Human), UniProt Q9GZT9); assay: PHD enzymatic assay ([14C]-succinic acid production); format: biochemical; conditions: purified PHD2181-417, HIF-1α peptide substrate, 30 min pre-incubation; average of results
Method in brief: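 Recombinant human PHD2 (aa 181-417, E. coli-expressed, tags cleaved) with peptide substrate (10 μM) and [5-14C]-2-oxoglutarate in Tris pH 7.5 with catalase, DTT and ascorbate, 10 min reaction after 30 min compound pre-incubation; compounds at 100 μM final, 1% DMSO. [14C]-succinate separated by DNP precipitation and beta-counted; IC50 from three-parameter logistic fit.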

Sequence of PHD2181-417 (Q9GZT9 181-417): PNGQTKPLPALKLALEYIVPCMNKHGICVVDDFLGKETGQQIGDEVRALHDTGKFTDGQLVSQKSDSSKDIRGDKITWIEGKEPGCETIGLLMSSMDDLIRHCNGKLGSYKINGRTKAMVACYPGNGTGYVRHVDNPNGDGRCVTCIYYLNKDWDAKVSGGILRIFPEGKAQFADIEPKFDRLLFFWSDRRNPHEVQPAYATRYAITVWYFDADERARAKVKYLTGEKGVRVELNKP

Row | SMILES | activation at 100 µM (HIF1-α, Hela cells) [%] | Enzyme pIC50 (PHD2181-417)
1 | O=C(O)c1cnn(-c2nc(N3CCSCC3)c3cc(Oc4ccc(Cl)cc4)ccc3n2)c1 [Example 67, 1-(6-(4-Chlorophenoxy)-4-thiomorpholinoquinazolin-2-yl)-1H-pyrazole-4-carboxylic acid] | 31 | 7.3
2 | O=C(O)c1cnn(-c2nc(N3CCOCC3)c3cc(-c4ccccc4)ccc3n2)c1 [Example 58, 1-(4-Morpholino-6-phenylquinazolin-2-yl)-1H-pyrazole-4-carboxylic acid] | 49 | 6.5
3 | O=C(O)c1cnn(-c2nc(NC3CCOCC3)c3cc(Oc4ccccc4)ccc3n2)c1 [Example 76, 1-(6-Phenoxy-4-((tetrahydro-2H-pyran-4-yl)amino)quinazolin-2-yl)-1H-pyrazole-4-carboxylic acid] | 19 | 6.5
4 | O=C(O)c1cnn(-c2nc(NCC3CC3)c3ccc(Oc4ccccc4)cc3n2)c1 [Example 98, 1-(4-((Cyclopropylmethyl)amino)-7-phenoxyquinazolin-2-yl)-1H-pyrazole-4-carboxylic acid] | 46 | 6.7
5 | O=C(O)c1cnn(-c2nc(N3CCCC3)c3ccc(-c4ccccc4)cc3n2)c1 [Example 81, 1-(7-Phenyl-4-(pyrrolidin-1-yl)quinazolin-2-yl)-1H-pyrazole-4-carboxylic acid] | 10 | 5.5
6 | Cc1cccc(C)c1Oc1cc2c(N3CCCN(C)CC3)nc(-n3cc(C(=O)O)cn3)nc2cc1F [Example 17, 1-(6-(2,6-Dimethylphenoxy)-7-fluoro-4-(4-methyl-1,4-diazepan-1-yl)quinazolin-2-yl)-1H-pyrazole-4-carboxylic acid] | 47 | 6.7
7 | O=C(O)c1cnn(-c2nc(NC3CCOCC3)c3cc(-c4ccccc4)ccc3n2)c1 [Example 56, 1-(6-Phenyl-4-((tetrahydro-2H-pyran-4-yl)amino)quinazolin-2-yl)-1H-pyrazole-4-carboxylic acid] | 25 | 6.2
8 | O=C(O)c1cnn(-c2nc(N3CCCCC3)c3ccc(-c4ccccc4)cc3n2)c1 [Example 82, 1-(7-Phenyl-4-(piperidin-1-yl)quinazolin-2-yl)-1H-pyrazole-4-carboxylic acid] | 4.6 | 6.1
9 | O=C(O)c1cnn(-c2nc(NC3CCCCC3)c3ccc(Oc4ccccc4)cc3n2)c1 [Example 97, 1-(4-(Cyclohexylamino)-7-phenoxyquinazolin-2-yl)-1H-pyrazole-4-carboxylic acid] | 55 | 7.0
10 | CCN(CC)c1nc(-n2cc(C(=O)O)cn2)nc2cc(Br)ccc12 [Example 96, 1-(7-Bromo-4-(diethylamino)quinazolin-2-yl)-1H-pyrazole-4-carboxylic acid] | 72 | 6.9
11 | O=C(O)c1cnn(-c2nc(Nc3ccccc3)c3cc(-c4ccccc4)ccc3n2)c1 [Example 44, 1-(6-Phenyl-4-(phenylamino)quinazolin-2-yl)-1H-pyrazole-4-carboxylic acid] | 22 | 7.1
12 | CN1CCCN(c2nc(-n3cc(C(=O)O)cn3)nc3ccc(-c4ccccc4)cc23)CC1 [Example 57, 1-(4-(4-Methyl-1,4-diazepan-1-yl)-6-phenylquinazolin-2-yl)-1H-pyrazole-4-carboxylic acid] | 30 | 6.4
13 | CN(C)c1nc(-n2cc(C(=O)O)cn2)nc2cc(-c3ccccc3)ccc12 [Example 80, 1-(4-(Dimethylamino)-7-phenylquinazolin-2-yl)-1H-pyrazole-4-carboxylic acid] | 7.8 | 6.0
14 | O=C(O)c1cnn(-c2nc(NCC3CCCCC3)c3cc(Oc4ccc(Cl)cc4)ccc3n2)c1 [Example 64, 1-(6-(4-Chlorophenoxy)-4-((cyclohexylmethyl)amino)quinazolin-2-yl)-1H-pyrazole-4-carboxylic acid] | 1.5 | 7.5
15 | COCCN(C)c1nc(-n2cc(C(=O)O)cn2)nc2cc(Oc3ccccc3)ccc12 [Example 95, 1-(4-((2-Methoxyethyl)(methyl)amino)-7-phenoxyquinazolin-2-yl)-1H-pyrazole-4-carboxylic acid] | 46 | 6.8
16 | N#CNc1nc(-n2cc(C(=O)O)cn2)nc2ccc(-c3ccccc3)cc12 [Example 50, 1-(4-Cyanamido-6-phenylquinazolin-2-yl)-1H-pyrazole-4-carboxylic acid] | 9.6 | 7.1
17 | CC(C)(C)Nc1nc(-n2cc(C(=O)O)cn2)nc2ccc(C3CCCCC3)cc12 [Example 36, 1-(4-(tert-Butylamino)-6-cyclohexylquinazolin-2-yl)-1H-pyrazole-4-carboxylic acid] | 23 | 6.8
18 | Nc1nc(-n2cc(C(=O)O)cn2)nc2ccc(-c3ccccc3)cc12 [Example 53, 1-(4-Amino-6-phenylquinazolin-2-yl)-1H-pyrazole-4-carboxylic acid] | 16 | 7.0
19 | O=C(O)c1cnn(-c2nc(NCC3CCCCC3)c3ccc(Oc4ccccc4)cc3n2)c1 [Example 84, 1-(4-((Cyclohexylmethyl)amino)-7-phenoxyquinazolin-2-yl)-1H-pyrazole-4-carboxylic acid] | 4.6 | 6.8
20 | CC(=O)NC1CCN(c2nc(-n3cc(C(=O)O)cn3)nc3ccc(-c4ccccc4)cc23)CC1 [Example 55, 1-(4-(4-Acetamidopiperidin-1-yl)-6-phenylquinazolin-2-yl)-1H-pyrazole-4-carboxylic acid] | 28 | 6.7
21 | O=C(O)c1cnn(-c2nc(NC3CC3)c3cc(-c4ccccc4)ccc3n2)c1 [Example 51, 1-(4-(Cyclopropylamino)-6-phenylquinazolin-2-yl)-1H-pyrazole-4-carboxylic acid] | 40 | 6.5
22 | O=C(O)c1cnn(-c2nc(Nc3ccccc3Cl)c3cc(C4CCCCC4)ccc3n2)c1 [Example 29, 1-(4-((2-Chlorophenyl)amino)-6-cyclohexylquinazolin-2-yl)-1H-pyrazole-4-carboxylic acid] | 7.8 | 7.1
23 | CCN(C)c1nc(-n2cc(C(=O)O)cn2)nc2cc(Oc3ccccc3)ccc12 [Example 94, 1-(4-(Ethyl(methyl)amino)-7-phenoxyquinazolin-2-yl)-1H-pyrazole-4-carboxylic acid] | 83 | 7.2
24 | O=C(O)c1cnn(-c2nc(N3CCOCC3)c3ccc(Oc4ccccc4)cc3n2)c1 [Example 89, 1-(4-Morpholino-7-phenoxyquinazolin-2-yl)-1H-pyrazole-4-carboxylic acid] | 17 | 6.2
25 | O=C(O)c1cnn(-c2nc(N3CCCCCC3)c3cc(Oc4ccc(Cl)cc4)ccc3n2)c1 [Example 66, 1-(4-(Azepan-1-yl)-6-(4-chlorophenoxy)quinazolin-2-yl)-1H-pyrazole-4-carboxylic acid] | 14 | 7.5
26 | CC(C)(C)Nc1nc(-n2cc(C(=O)O)cn2)nc2cc(Oc3ccccc3)ccc12 [Example 99, 1-(4-(tert-Butylamino)-7-phenoxyquinazolin-2-yl)-1H-pyrazole-4-carboxylic acid] | 31 | 6.3
27 | CC(C)(C)Nc1nc(-n2cc(C(=O)O)cn2)nc2ccc(-c3ccccc3)cc12 [Example 52, 1-(4-(tert-Butylamino)-6-phenylquinazolin-2-yl)-1H-pyrazole-4-carboxylic acid] | 37 | 6.5
28 | O=C(O)c1cnn(-c2nc(NCC3CCCCC3)c3cc(-c4ccccc4)ccc3n2)c1 [Example 49, 1-(4-((Cyclohexylmethyl)amino)-6-phenylquinazolin-2-yl)-1H-pyrazole-4-carboxylic acid] | 3.8 | 6.9
29 | CCCCN(CCCC)c1nc(-n2cc(C(=O)O)cn2)nc2cc(Oc3ccccc3)ccc12 [Example 92, 1-(4-(Dibutylamino)-7-phenoxyquinazolin-2-yl)-1H-pyrazole-4-carboxylic acid] | 4.1 | 7.1
30 | N#CC1CCN(c2nc(-n3cc(C(=O)O)cn3)nc3ccc(C4CCCCC4)cc23)CC1 [Example 30, 1-(4-(4-Cyanopiperidin-1-yl)-6-cyclohexylquinazolin-2-yl)-1H-pyrazole-4-carboxylic acid] | 77 | 6.9
